Reference: article PMC4830539, “Chemical Inhibition of Histone Deacetylases 1 and 2 Induces Fetal Hemoglobin through Activation of GATA2” (PLoS ONE, 2016)

How the values were obtained:
HbF protein = HbF protein by flow cytometry in BM cells (CS1, CS2); format: cell-based, human; conditions: for HbF positive cells / MFI of HbF positive cells: 1 μM ACY-957 or 30 μM hydroxyurea
Protocol: CD34+ cells isolated from human bone marrow of healthy normal donors (Lonza, AllCells, or StemCell Technologies), referred to as BM cells throughout this work, were cultured using two distinct 2-phase culture systems. These systems have been described previously and are referred to as Culture System 1 (CS1) and Culture System 2 (CS2) throughout this work. CS1 expansion media is StemSpan SFEM (StemCell Technologies) supplemented with CC100 (StemCell Technologies), 100 U/mL penicillin and 100 μg/mL streptomycin. CC100 is a mix of Flt-3 ligand (FLT3LG), KIT ligand (KITLG), interleukin-3 (IL3), and interleukin-6 (IL6). CS1 differentiation media is StemSpan SFEM supplemented with 1 U/ml erythropoietin (EPO), 5 ng/mL IL3, 20 ng/mL KITLG, 2 μM dexamethasone, 1 μM beta-estradiol, 100 U/mL penicillin and 100 μg/mL streptomycin. CS2 expansion media is StemSpan SFEM supplemented with 1% glutamine, 40 μg/mL lipids (Sigma), 100 ng/mL KITLG, 10 ng/mL IL3, and 0.5 U/mL EPO. CS2 differentiation media is same as CS2 expansion media, except 3 U/mL EPO.
(§1) Flow cytometry was performed on a FC500 flow cytometer ([…]). Fetal hemoglobin protein was assayed using the Fetal Hemoglobin Test Kit (Life Technologies) according to manufacturer’s protocol. Samples were stained with FITC-conjugated mouse IgG1 anti-human HbF antibody (clone HbF-1, Life Technologies). Each sample was also stained with a FITC-conjugated mouse IgG1 isotype control antibody (clone X40, BD Biosciences) and used as a negative control. FETALtrol cells were used as positive controls (Trillium Diagnostics). TFRC and GYPA were detected on fresh cells by staining with 20 μL of PE-conjugated anti-human TFRC (clone M-A712, catalog 555537, BD Biosciences) and 0.5 μL of FITC- or APC-conjugated anti-human GYPA (clone GA-R2 (HIR2), catalog 559943 or 551336, BD Biosciences) in 200 μL PBS with 0.1% BSA for 40 min on ice. Forward and side scatter, or staining with 7AAD (catalog 559925, BD Biosciences), was used to identify viable cells.
To determine if the HBG mRNA induction observed in the presence of ACY-957 was associated with an increase in the HbF protein, CS1 and CS2 cells at day 5 were stained with a fluorescently conjugated anti-HbF antibody and evaluated by flow cytometry. HbF positive cells were increased by 2 to 3-fold upon treatment with ACY-957, which exceeded the response observed with hydroxyurea (Fig 2B and 2E).

[1] = system: erythroid differentiation of BM cells; experiment: Erythroid maturation stage by flow cytometry (TFRC and GYPA); format: cell-based, human; conditions: for cells in TFRC/GYPA gate (gate not named): Fig 5A
Protocol: as §1
To investigate the effects of HDAC1/2 inhibition on erythroid maturation, we followed differentiation by flow cytometry using TFRC and GYPA [38]. BM cells were cultured in CS1 expansion media for 7 days, yielding a pool of TFRC^negGYPA^neg cells composed of primitive and more differentiated hematopoietic progenitors of multiple lineages (Fig 4, ‘day 0’). These cells were then shifted to CS1 differentiation media containing either 1 μM of ACY-957 or vehicle control. […] The majority of vehicle control cells continued to differentiate over the next 3 days, becoming TFRC^posGYPA^pos by day 8. […] TFRC^posGYPA^mid cells are equivalent to proerythroblasts, while TFRC^posGYPA^pos cells include the more differentiated basophilic and polychromatic erythroblasts. Therefore, HDAC1/2 inhibition using 1 μM of ACY-957 was able to inhibit differentiation of proerythroblasts to basophilic erythroblasts in the liquid culture systems utilized in this study.

[2] = design: method as in earlier work; conditions: mouse; cited from earlier work
HDAC8 = system: T1, HDAC8; experiment: In vitro biochemical HDAC enzyme assay; conditions: at concentrations as high as 20 μM
T1 construct: purchased BPS Biosciences
Protocol: (§2) In vitro biochemical assays were performed as described previously. Specifically, drugs were dissolved and diluted in assay buffer (50 mM HEPES, pH 7.4, 100 mM KCl, 0.001% Tween-20, 0.05% BSA, and 20 μM Tris (2-carboxyethyl)phosphine) to 6-fold the final concentration. HDAC enzymes (BPS Biosciences) were diluted to 1.5-fold of the final concentration in assay buffer and pre-incubated with ACY-957 for 24 hours before the addition of the substrate. The amount of substrate (acetyl-lysine tripeptide substrate for HDAC1, HDAC2, HDAC3, and HDAC6 or trifluoroacetyl-lysine tripeptide for HDAC4, HDAC5, HDAC7, HDAC8, and HDAC9) used for each enzyme was equal to the Michaelis constant (Km), as determined by a titration curve. Substrate was diluted in assay buffer to 6-fold the final concentration with 0.3 μM sequencing grade trypsin (Sigma-Aldrich). The substrate/trypsin mix was added to the enzyme/compound mix and the plate was shaken for 5 seconds and then placed into a SpectraMax M5 microtiter plate reader (Molecular Devices). The enzymatic reaction was monitored over 30 minutes for release of […] after deacetylation of the lysine side chain in the peptide substrate, and the linear rate of the reaction was calculated.
(§3) ACY-957 was tested against each individual HDAC in an in vitro biochemical assay as previously described. Aminobenzamides have slow association rate constants, therefore a prolonged pre-incubation time of 24 hours is required to reach equilibrium.

HDAC3 = HDAC3 (Homo sapiens, UniProt O15379); experiment: In vitro biochemical HDAC enzyme assay
Protocol: as §2, §3

HDAC6 = system: T2, HDAC6; experiment: In vitro biochemical HDAC enzyme assay; conditions: at concentrations as high as 20 μM
T2 construct: purchased BPS Biosciences
Protocol: as §2, §3

HDAC1 = HDAC1 (Homo sapiens, UniProt Q13547); experiment: In vitro biochemical HDAC enzyme assay; conditions: 24 hours pre-incubation; mean, n = 4
Protocol: as §2, §3

HDAC4 = system: T3, HDAC4; experiment: In vitro biochemical HDAC enzyme assay; conditions: at concentrations as high as 20 μM
T3 construct: purchased BPS Biosciences
Protocol: as §2, §3

HDAC5 = system: T4, HDAC5; experiment: In vitro biochemical HDAC enzyme assay; conditions: at concentrations as high as 20 μM
T4 construct: purchased BPS Biosciences
Protocol: as §2, §3

HDAC7 = system: T5, HDAC7; experiment: In vitro biochemical HDAC enzyme assay; conditions: at concentrations as high as 20 μM
T5 construct: purchased BPS Biosciences
Protocol: as §2, §3

HDAC9 = system: T6, HDAC9; experiment: In vitro biochemical HDAC enzyme assay; conditions: at concentrations as high as 20 μM
T6 construct: purchased BPS Biosciences
Protocol: as §2, §3

[3] = CS1 differentiation media, 1 μM

Chain of HDAC3 (O15379 whole entry): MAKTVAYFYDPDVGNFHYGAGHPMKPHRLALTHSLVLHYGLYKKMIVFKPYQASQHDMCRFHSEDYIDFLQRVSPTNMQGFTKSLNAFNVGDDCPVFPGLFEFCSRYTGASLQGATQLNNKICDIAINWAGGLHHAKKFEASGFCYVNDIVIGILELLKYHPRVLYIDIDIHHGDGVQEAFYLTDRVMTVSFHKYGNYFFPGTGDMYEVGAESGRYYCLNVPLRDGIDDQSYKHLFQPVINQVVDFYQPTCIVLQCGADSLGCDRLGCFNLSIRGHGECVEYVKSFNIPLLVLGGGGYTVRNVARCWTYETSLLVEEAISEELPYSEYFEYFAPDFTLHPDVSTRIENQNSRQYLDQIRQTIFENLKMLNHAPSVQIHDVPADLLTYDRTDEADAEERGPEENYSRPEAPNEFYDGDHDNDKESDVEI
Chain of HDAC3 (Q9Y618 395-489 partner limits assumed): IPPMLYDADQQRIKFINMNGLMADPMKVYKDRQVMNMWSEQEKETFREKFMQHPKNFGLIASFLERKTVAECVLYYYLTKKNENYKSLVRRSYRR
Chain of HDAC1 (Q13547 whole entry): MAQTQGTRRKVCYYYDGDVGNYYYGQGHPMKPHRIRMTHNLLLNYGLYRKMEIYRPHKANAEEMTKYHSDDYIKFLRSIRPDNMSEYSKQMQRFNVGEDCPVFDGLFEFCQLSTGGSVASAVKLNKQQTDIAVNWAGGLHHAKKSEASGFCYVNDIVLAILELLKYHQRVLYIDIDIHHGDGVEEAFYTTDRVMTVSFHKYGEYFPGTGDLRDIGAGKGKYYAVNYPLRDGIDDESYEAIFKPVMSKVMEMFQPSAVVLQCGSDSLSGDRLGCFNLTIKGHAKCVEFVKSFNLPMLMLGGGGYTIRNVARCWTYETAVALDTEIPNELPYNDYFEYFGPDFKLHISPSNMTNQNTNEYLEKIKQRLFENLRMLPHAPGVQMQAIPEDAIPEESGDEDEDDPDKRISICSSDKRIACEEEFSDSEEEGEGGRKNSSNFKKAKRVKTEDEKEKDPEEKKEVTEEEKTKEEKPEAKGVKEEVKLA

inhibition of HDAC8 (HDAC8): no inhibition
IC50 (HDAC3; 24 hours pre-incubation, mean, n = 4): 1300 nM
selectivity for HDAC1/2 over HDAC3 (HDAC3; biochemical assay): approximately 100 fold
inhibition of HDAC6 (HDAC6): no inhibition
IC50 (HDAC1): 7 nM
inhibition of HDAC4 (HDAC4): no inhibition
inhibition of HDAC5 (HDAC5): no inhibition
inhibition of HDAC7 (HDAC7): no inhibition
inhibition of HDAC9 (HDAC9): no inhibition
SMILES: Nc1ccc(-c2cccs2)cc1NC(=O)c1ccc2nc(N3CCNCC3)ccc2c1 [ACY-957]
HbF positive cells (HbF protein; CS1, day 5): 36%
MFI of HbF positive cells (HbF protein; CS1, day 5): 36
increase of HbF positive cells (HbF protein; CS1 and CS2, day 5, 1 μM): 2 to 3 fold
increase of mean fluorescent intensity (MFI) of HbF positive cells (HbF protein; CS1 and CS2, day 5, 1 μM): up to 2 fold
HbF positive cells (HbF protein; CS2, day 5): 50%
MFI of HbF positive cells (HbF protein; CS2, day 5): 20
erythroid differentiation by day 8 [1, 3]: accumulated at the TFRC^posGYPA^mid stage
erythroid differentiation during the first 5 days [1, 3]: differentiated to the same extent as vehicle treated cells
cells in TFRC/GYPA gate (gate not named) ([1]; Donor 1, CS1, day 5, 1 μM, first gate listed): 61%
cells in TFRC/GYPA gate (gate not named) ([1]; Donor 1, CS1, day 5, 1 μM, second gate listed): 30%
cells in TFRC/GYPA gate (gate not named) ([1]; Donor 2, CS1, day 5, 1 μM, first gate listed): 62%
cells in TFRC/GYPA gate (gate not named) ([1]; Donor 2, CS1, day 5, 1 μM, second gate listed): 37%
cells in TFRC/GYPA gate (gate not named) ([1]; Donor 3, CS1, day 5, 1 μM, first gate listed): 65%
cells in TFRC/GYPA gate (gate not named) ([1]; Donor 3, CS1, day 5, 1 μM, second gate listed): 32%
pharmacokinetic properties [2]: favorable
